These results are taken from patent US6462055B2, “Alpha-methylbenzyl-containing thiourea inhibitors of herpes viruses containing a phenylenediamine group” (Wyeth, priority 1998, dated 2002).

In brackets after ≈: the same amount, converted by molar mass.

Assay [1] concerns HCMV recombinant mutant virus (RV145). In words: microbe, parasite or virus in culture. The assay is classed as cell-based, human cytomegalovirus. The conditions noted are these: for IC50: Human betaherpesvirus 5, read-out: IC50 ug/ml HCMV, HCMV. The essentials: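 Human foreskin fibroblasts infected with HCMV RV145 carrying a viral-promoter-driven beta-glucuronidase gene, in presence of compound. At 96 h post-infection, lysates assayed for beta-glucuronidase with colorimetric or fluorogenic glucuronide substrate as replication read-out. IC50 estimated from varying inhibitor amounts.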

For assay [2], the system named is VZV strain Ellen. The experiment in a line: VZV Antiviral (ELISA) Assay in human foreskin fibroblast cells. The assay is classed as cell-based, varicella-zoster virus. Particulars: for IC50: Human alphaherpesvirus 3, Fibroblast, read-out: IC50 (ug/ml) VZV. Put shortly: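 HFF cells infected overnight with VZV Ellen at MOI <0.1, mixed with uninfected cells, were seeded with compound and grown 3 days at 37° C in DMEM/2% FBS. Viral glycoprotein II was detected by ELISA with β-galactosidase-linked secondary; IC50 from fluorescence versus no-compound wells.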
Background: ELISA stands for enzyme-linked immunosorbent assay.

Assay [3] relates to HSV-1. The experiment in a line: HSV Antiviral (ELISA) Assay in Vero cells. It counts as cell-based, herpes simplex virus type 1. The conditions noted are these: HSV-1, Vero cells; for IC50: Human alphaherpesvirus 1, read-out: IC50 (ug/ml) HSV. The essentials: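 Viral replication was quantified by cell-fixed ELISA for HSV glycoprotein D, using a β-galactosidase reporter and fluorogenic umbelliferyl substrate, about 24 h after HSV-1 infection (MOI 0.006) of Vero cells. Compounds, at several concentrations, were added 30 min pre-infection. IC50 was derived from fluorescence relative to the compound-free signal.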

Turning to `CCCCC(NC(=S)Nc1ccc(NC(=O)c2ccccc2F)cc1)c1ccc(F)cc1` (centres unmarked) [Example 773], the “IC50 ug/ml HCMV” value in assay [1] amounted to 1.2 µg/mL (≈ 2.65 µM). Besides, the “IC50 (ug/ml) VZV” value in assay [2] was more than 7.5 µg/mL. In addition, in assay [3], the “IC50 (ug/ml) HSV” value was more than 10 µg/mL.

`CN1CCC(N(C)c2ccc(NC(=S)Nc3ccc(NC(=O)c4c(F)cccc4F)cc3)cc2Cl)CC1` [Example 340]: in assay [1], the “IC50 ug/ml HCMV” value worked out at 0.25 µg/mL (≈ 0.459 µM). Moreover, in assay [2], the “IC50 (ug/ml) VZV” value came to 4 µg/mL (≈ 7.35 µM) and the “% inhibition 10 ug/ml VZV” value is 99%. The “IC50 (ug/ml) HSV” value in assay [3] is 3 µg/mL (≈ 5.51 µM).

On to `CC(NC(=S)Nc1ccc(NC(=O)c2ccc(O)cc2)cc1)c1ccc(F)cc1` (centres unmarked) [Example 760], for which the IC50 in assay [1], in assay [2] and in assay [3] was more than 10 µg/mL in each case.

Take `COc1cc(OC)c(NC(=S)Nc2ccc(NC(=O)c3ccc(F)cc3F)cc2)cc1Cl` [Example 188]: in assay [1], the “IC50 ug/ml HCMV” value was more than 10 µg/mL. In addition, in assay [2], the “IC50 (ug/ml) VZV” value was more than 10 µg/mL and the “% inhibition 10 ug/ml VZV” value is given as 22%. Besides, the “IC50 (ug/ml) HSV” value in assay [3] was 1.2 µg/mL (≈ 2.51 µM).

As to `O=C(Nc1ccc(NC(=S)Nc2cc(Br)cc(C(F)(F)F)c2)cc1)c1ccccc1F` [Example 531], the “IC50 ug/ml HCMV” value in assay [1] stood at 5 µg/mL (≈ 9.76 µM). The “IC50 (ug/ml) VZV” value in assay [2] came out at 6 µg/mL (≈ 11.7 µM). For the same molecule, the “IC50 (ug/ml) HSV” value in assay [3] was more than 10 µg/mL.

As for `CC(NC(=S)Nc1ccc(NC(=O)c2ccccc2F)cc1)c1ccccc1Cl` (centres unmarked) [Example 784], in assay [1], the “IC50 ug/ml HCMV” value is 1.1 µg/mL (≈ 2.57 µM). Also, the “IC50 (ug/ml) VZV” value in assay [2] was 0.7 µg/mL (≈ 1.64 µM). For the same molecule, in assay [3], the “IC50 (ug/ml) HSV” value is more than 10 µg/mL.

`CN1CCC(N(C)c2ccc(NC(=S)Nc3ccc(NC(=O)c4ccccc4F)cc3)cc2Cl)C1` (centres unmarked) [Example 332]: the “IC50 ug/ml HCMV” value in assay [1] turned out to be 0.9 µg/mL (≈ 1.76 µM). In assay [2], the “IC50 (ug/ml) VZV” value worked out at 8 µg/mL (≈ 15.6 µM) and the “% inhibition 10 ug/ml VZV” value was 90%. Also, the “IC50 (ug/ml) HSV” value in assay [3] was found to be 1 µg/mL (≈ 1.95 µM).

As to `Cc1ccccc1C(=O)Nc1ccc(NC(=S)Nc2ccc(N(C)C3CCCCC3)c(Cl)c2)cc1` [Example 247], the “IC50 ug/ml HCMV” value in assay [1] was more than 10 µg/mL. In assay [2], the “IC50 (ug/ml) VZV” value was 5 µg/mL (≈ 9.86 µM) and the “% inhibition 10 ug/ml VZV” value stood at 74%. The “IC50 (ug/ml) HSV” value in assay [3] is more than 10 µg/mL.

Take `COc1cc(OC)c(NC(=S)Nc2ccc(NC(=O)c3ccccc3N[S+](C)[O-])cc2)cc1Cl` (centres unmarked) [Example 191]: in assay [1], the “IC50 ug/ml HCMV” value was more than 10 µg/mL. Also, in assay [2], the “IC50 (ug/ml) VZV” value is more than 10 µg/mL and the “% inhibition 10 ug/ml VZV” value is reported as 22%. Moreover, the “IC50 (ug/ml) HSV” value in assay [3] worked out at 8 µg/mL (≈ 15.4 µM).

For the molecule `NNC(=O)c1cccc(NC(=S)Nc2ccc(NC(=O)c3ccccc3F)cc2)c1` [Example 463], the “IC50 ug/ml HCMV” value in assay [1] was more than 10 µg/mL. Moreover, in assay [2], the “IC50 (ug/ml) VZV” value is more than 10 µg/mL and the “% inhibition 10 ug/ml VZV” value is 19%. In addition, the “IC50 (ug/ml) HSV” value in assay [3] is more than 10 µg/mL.

Consider `COc1cc(OC)c(NC(=S)Nc2ccc(NC(=O)c3cccc([N+](=O)[O-])c3)cc2)cc1Cl` [Example 135], for which the “IC50 ug/ml HCMV” value in assay [1] is 5 µg/mL (≈ 10.3 µM). For the same molecule, in assay [2], the “IC50 (ug/ml) VZV” value was more than 10 µg/mL and the “% inhibition 10 ug/ml VZV” value was found to be 0%. Further, the “IC50 (ug/ml) HSV” value in assay [3] was 1.5 µg/mL (≈ 3.08 µM).

Turning to `CC(NC(=S)Nc1ccc(NC(=O)c2ccccc2F)cc1)c1ccc(N(C)C)cc1` (centres unmarked) [Example 793], in assay [1], the “IC50 ug/ml HCMV” value was determined as 3.2 µg/mL (≈ 7.33 µM). The “IC50 (ug/ml) VZV” value in assay [2] turned out to be 3.1 µg/mL (≈ 7.1 µM). Moreover, in assay [3], the “IC50 (ug/ml) HSV” value came out at 9 µg/mL (≈ 20.6 µM).

Take “N-{4-[3-(3-Butylsulfonyl-phenyl)-thioureido]-phenyl}-2-fluoro-benzamide [Example 966]”: the “IC50 ug/ml HCMV” value in assay [1] stood at 2.5 µg/mL. Also, in assay [2], the “IC50 (ug/ml) VZV” value was 8 µg/mL and the “% inhibition 10 ug/ml VZV” value amounted to 95%. Further, the “IC50 (ug/ml) HSV” value in assay [3] was 7 µg/mL.

Take `CC(NC(=S)Nc1ccc(NC(=O)c2ccccc2F)cc1)c1ccc(C#N)cc1` (centres unmarked) [Example 792]: the results for the IC50 in assay [1], in assay [2] and in assay [3] were 5 µg/mL (≈ 11.9 µM), more than 7.5 µg/mL and more than 10 µg/mL, respectively.

On to `O=C(Nc1ccc(NC(=S)NC(CO)c2ccccc2)cc1)c1ccccc1F` (centres unmarked) [Example 797], for which the IC50 in assay [1] was more than 10 µg/mL; in assay [2], 1.7 µg/mL (≈ 4.15 µM); in assay [3], more than 10 µg/mL.
